In the supplement of paper PMC13380429:

Tests used:
Conditions in all cases: 72 h
Calu-3 [1] = assay: drug sensitivity score (DSS) for viability; higher = more toxic; extreme values may be limits of the assay
Vero E6 [2] = assay: as above
U2OS [3] = assay: as above
Caco-2 [4] = assay: as above
HepG2 [5] = assay: as above
Calu-3 [6] = assay: cell viability relative to DMSO; higher = less toxic
Vero E6 [7] = assay: as above
U2OS [8] = assay: as above
Caco-2 [9] = assay: as above
HepG2 [10] = assay: as above
Calu-3 [11] = assay: relative viability EC50 (midpoint between 100% and the lowest measured viability); higher = less toxic
Vero E6 [12] = assay: as above
U2OS [13] = assay: as above
Caco-2 [14] = assay: as above
HepG2 [15] = assay: as above

SMILES | drug sensitivity score (Calu-3 [1]) | drug sensitivity score (Vero E6 [2]) | drug sensitivity score (U2OS [3]) | drug sensitivity score (Caco-2 [4]) | drug sensitivity score (HepG2 [5]) | cell viability (Calu-3 [6]; 1 nM) [%] | cell viability (Calu-3 [6]; 10 nM) [%] | cell viability (Calu-3 [6]; 100 nM) [%] | cell viability (Calu-3 [6]; 1000 nM) [%] | cell viability (Calu-3 [6]; 10000 nM) [%] | cell viability (Vero E6 [7]; 1 nM) [%] | cell viability (Vero E6 [7]; 10 nM) [%] | cell viability (Vero E6 [7]; 100 nM) [%] | cell viability (Vero E6 [7]; 1000 nM) [%] | cell viability (Vero E6 [7]; 10000 nM) [%] | cell viability (U2OS [8]; 1 nM) [%] | cell viability (U2OS [8]; 10 nM) [%] | cell viability (U2OS [8]; 100 nM) [%] | cell viability (U2OS [8]; 1000 nM) [%] | cell viability (U2OS [8]; 10000 nM) [%] | cell viability (Caco-2 [9]; 1 nM) [%] | cell viability (Caco-2 [9]; 10 nM) [%] | cell viability (Caco-2 [9]; 100 nM) [%] | cell viability (Caco-2 [9]; 1000 nM) [%] | cell viability (Caco-2 [9]; 10000 nM) [%] | cell viability (HepG2 [10]; 1 nM) [%] | cell viability (HepG2 [10]; 10 nM) [%] | cell viability (HepG2 [10]; 100 nM) [%] | cell viability (HepG2 [10]; 1000 nM) [%] | cell viability (HepG2 [10]; 10000 nM) [%] | relative viability EC50 (Calu-3 [11]) [µM] | relative viability EC50 (Vero E6 [12]) [µM] | relative viability EC50 (U2OS [13]) [µM] | relative viability EC50 (Caco-2 [14]) [µM] | relative viability EC50 (HepG2 [15]) [µM]
CN1CCCC(n2nc(Cc3ccc(Cl)cc3)c3ccccc3c2=O)CC1 (stereo not given) [azelastine] | 0 | 0 | 0 | 0 | 0.3 | 97.1 | 96.7 | 105 | 114 | 92.3 | 108 | 95 | 110 | 103 | 94.9 | 104 | 111 | 98.8 | 100 | 93.4 | 95.2 | 91.2 | 98.2 | 94.2 | 87 | 113 | 91.5 | 101 | 89.3 | 89.2 | > 10 | > 10 | > 10 | > 10 | > 10
NC(CO)C(=O)NNCc1ccc(O)c(O)c1O (stereo not given) [benserazide] | 0 | 0 | 0 | 0 | 0 | 88.9 | 89.8 | 95.7 | 96.2 | 92.2 | 115 | 99.8 | 106 | 97 | 106 | 96.8 | 101 | 93 | 99.8 | 94 | 95.7 | 99 | 81.6 | 97.8 | 87.9 | 80.5 | 97.4 | 104 | 85 | 94.5 | > 10 | > 10 | > 10 | > 10 | > 10
CCOC(=O)c1ccc(N)cc1 [benzocaine] | 0 | 0 | 0 | 0 | 0 | 94 | 96 | 105 | 105 | 98.7 | 103 | 102 | 95.7 | 102 | 110 | 99.3 | 95.4 | 99.9 | 99.6 | 95.5 | 96.4 | 84.7 | 101 | 97.9 | 97 | 98.6 | 94.9 | 98.1 | 95 | 96.5 | > 10 | > 10 | > 10 | > 10 | > 10
CN(Cc1cc(Br)cc(Br)c1N)C1CCCCC1 [bromhexine] | 0 | 0 | 0 | 0 | 0 | 92 | 90.7 | 95.1 | 90.9 | 95.4 | 110 | 97.9 | 106 | 102 | 103 | 98.9 | 105 | 96.3 | 99.5 | 98.2 | 96.2 | 109 | 100 | 97.9 | 94.6 | 99.2 | 108 | 107 | 97.9 | 108 | > 10 | > 10 | > 10 | > 10 | > 10
Cc1ccc(Cl)c(OCC(O)CNC(C)(C)C)c1 (stereo not given) [bupranolol] | 0 | 0 | 0 | 0 | 0 | 98.2 | 99.8 | 93.6 | 105 | 104 | 93.6 | 97.5 | 97.2 | 100 | 103 | 101 | 98.1 | 99.6 | 101 | 104 | 109 | 89 | 91.5 | 99.5 | 107 | 99.3 | 97.6 | 104 | 97.8 | 94.6 | > 10 | > 10 | > 10 | > 10 | > 10
C[C@@H]1NC(=O)[C@@H](N)CNC(=O)[C@H](C2CCNC(=N)N2)NC(=O)/C(=C/NC(N)=O)NC(=O)[C@H](CNC(=O)CC(N)CCCN)NC1=O.N=C1NCC[C@H]([C@@H]2NC(=O)/C(=C/NC(N)=O)NC(=O)[C@H](CNC(=O)C[C@@H](N)CCCN)NC(=O)[C@H](CO)NC(=O)[C@@H](N)CNC2=O)N1 [capreomycin] | 0 | 0 | 0 | 0 | 0 | 104 | 100 | 105 | 95.3 | 108 | 98.8 | 105 | 102 | 94.1 | 94.8 | 103 | 100 | 102 | 96 | 106 | 96.2 | 94.8 | 98 | 95 | 99.3 | 94.4 | 102 | 105 | 108 | 99.1 | > 10 | > 10 | > 10 | > 10 | > 10
CO/N=C(\C(=O)N[C@@H]1C(=O)N2C(C(=O)[O-])=C(C[n+]3ccn4ncccc43)CS[C@H]12)c1nsc(N)n1 [cefozopran] | 0 | 0 | 0 | 0 | 0 | 102 | 104 | 93.6 | 104 | 118 | 92.7 | 99.9 | 94 | 98.7 | 109 | 97 | 97.7 | 102 | 107 | 104 | 93.7 | 97.9 | 96.5 | 96.7 | 99 | 89.7 | 90 | 88.8 | 104 | 102 | > 10 | > 10 | > 10 | > 10 | > 10
